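At the GI50, growth is halved. TGI: total growth inhibition.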
Assays:
Assay in all cases: NCI anticancer screen, dose series, 384-well format
HL-60(TB) leukemia = tested on: HL-60(TB) leukemia
NCI-H23 lung = tested on: NCI-H23 lung
UO-31 renal = tested on: UO-31 renal
HS 578T breast = tested on: HS 578T breast
CCRF-CEM leukemia = tested on: CCRF-CEM leukemia
COLO 205 colon = tested on: COLO 205 colon
HCC-2998 colon = tested on: HCC-2998 colon
MOLT-4 leukemia = tested on: MOLT-4 leukemia
NCI-H522 lung = tested on: NCI-H522 lung
DU-145 prostate = tested on: DU-145 prostate
786-0 renal = tested on: 786-0 renal
MCF7 breast = tested on: MCF7 breast
BT-549 breast = tested on: BT-549 breast
NCI-H226 lung = tested on: NCI-H226 lung
UACC-257 melanoma = tested on: UACC-257 melanoma
MDA-MB-231 breast = tested on: MDA-MB-231 breast
OVCAR-8 ovarian = tested on: OVCAR-8 ovarian
MDA-MB-468 breast = tested on: MDA-MB-468 breast
SK-MEL-28 melanoma = tested on: SK-MEL-28 melanoma
M14 melanoma = tested on: M14 melanoma
A549 NSCLC = tested on: A549 NSCLC
A498 renal = tested on: A498 renal
SW-620 colon = tested on: SW-620 colon
OVCAR-4 ovarian = tested on: OVCAR-4 ovarian
ACHN renal = tested on: ACHN renal
U251 glioblastoma = tested on: U251 glioblastoma
HOP-62 NSCLC = tested on: HOP-62 NSCLC
UACC-62 melanoma = tested on: UACC-62 melanoma
HCT-15 colon = tested on: HCT-15 colon

**Q.** How did the GI50 (HL-60(TB) leukemia) turn out when COc1cc(N2CCC(N)CC2)ccc1Nc1ncc(Cl)c(-c2c[nH]c3ccccc23)n1 was run?
**A.** Its GI50 is 0.0214 µM.

**Q.** And the TGI (HL-60(TB) leukemia)?
**A.** The TGI was 0.424 µM.

**Q.** What about the GI50 (NCI-H23 lung) of the same molecule?
**A.** The GI50 was 0.318 µM.

**Q.** What about the TGI (NCI-H23 lung) of the same molecule?
**A.** The TGI was 1.76 µM.

**Q.** And the GI50 (UO-31 renal)?
**A.** The GI50 was 0.655 µM.

**Q.** And the TGI (UO-31 renal)?
**A.** Its TGI is 1.95 µM.

**Q.** What about the GI50 (HS 578T breast) of the same molecule?
**A.** The GI50 was 0.651 µM.

**Q.** And the TGI (HS 578T breast)?
**A.** Its TGI is 1.87 µM.

**Q.** And the GI50 (CCRF-CEM leukemia)?
**A.** Its GI50 is 0.886 µM.

**Q.** And the TGI (CCRF-CEM leukemia)?
**A.** Its TGI is 2.1 µM.

**Q.** And the GI50 (COLO 205 colon)?
**A.** Its GI50 is 0.0441 µM.

**Q.** And the TGI (COLO 205 colon)?
**A.** Its TGI is 1.07 µM.

**Q.** And the GI50 (HCC-2998 colon)?
**A.** Its GI50 is 0.349 µM.

**Q.** And the TGI (HCC-2998 colon)?
**A.** The TGI was 1.68 µM.

**Q.** And the GI50 (MOLT-4 leukemia)?
**A.** Its GI50 is 0.437 µM.

**Q.** And the TGI (MOLT-4 leukemia)?
**A.** The TGI was 1.64 µM.

**Q.** What about the GI50 (NCI-H522 lung) of the same molecule?
**A.** The GI50 was 0.221 µM.

**Q.** And the TGI (NCI-H522 lung)?
**A.** Its TGI is 1.23 µM.

**Q.** What about the GI50 (DU-145 prostate) of the same molecule?
**A.** Its GI50 is 0.389 µM.

**Q.** What about the TGI (DU-145 prostate) of the same molecule?
**A.** The TGI was 1.71 µM.

**Q.** What about the GI50 (786-0 renal) of the same molecule?
**A.** The GI50 was 1.01 µM.

**Q.** And the TGI (786-0 renal)?
**A.** Its TGI is 2.19 µM.

**Q.** And the GI50 (MCF7 breast)?
**A.** The GI50 was 0.0595 µM.

**Q.** What about the TGI (MCF7 breast) of the same molecule?
**A.** The TGI was 1.22 µM.

**Q.** And the GI50 (BT-549 breast)?
**A.** The GI50 was 1.14 µM.

**Q.** What about the TGI (BT-549 breast) of the same molecule?
**A.** The TGI was 2.36 µM.

**Q.** And the GI50 (NCI-H226 lung)?
**A.** Its GI50 is 0.112 µM.

**Q.** What about the TGI (NCI-H226 lung) of the same molecule?
**A.** The TGI was 0.663 µM.

**Q.** And the GI50 (UACC-257 melanoma)?
**A.** The GI50 was 0.789 µM.

**Q.** And the TGI (UACC-257 melanoma)?
**A.** The TGI was 2.1 µM.

**Q.** And the GI50 (MDA-MB-231 breast)?
**A.** Its GI50 is 1.08 µM.

**Q.** And the TGI (MDA-MB-231 breast)?
**A.** The TGI was 2.3 µM.

**Q.** What about the GI50 (OVCAR-8 ovarian) of the same molecule?
**A.** Its GI50 is 1.17 µM.

**Q.** What about the TGI (OVCAR-8 ovarian) of the same molecule?
**A.** The TGI was 2.41 µM.

**Q.** What about the GI50 (MDA-MB-468 breast) of the same molecule?
**A.** The GI50 was 0.667 µM.

**Q.** What about the TGI (MDA-MB-468 breast) of the same molecule?
**A.** The TGI was 1.93 µM.

**Q.** What about the GI50 (SK-MEL-28 melanoma) of the same molecule?
**A.** Its GI50 is 1.27 µM.

**Q.** What about the TGI (SK-MEL-28 melanoma) of the same molecule?
**A.** Its TGI is 2.53 µM.

**Q.** What about the GI50 (M14 melanoma) of the same molecule?
**A.** Its GI50 is 0.388 µM.

**Q.** And the TGI (M14 melanoma)?
**A.** The TGI was 1.62 µM.

**Q.** And the GI50 (A549 NSCLC)?
**A.** Its GI50 is 0.858 µM.

**Q.** And the TGI (A549 NSCLC)?
**A.** Its TGI is 2.12 µM.

**Q.** And the GI50 (A498 renal)?
**A.** The GI50 was 0.296 µM.

**Q.** And the TGI (A498 renal)?
**A.** The TGI was 1.33 µM.

**Q.** What about the GI50 (SW-620 colon) of the same molecule?
**A.** The GI50 was 0.254 µM.

**Q.** And the TGI (SW-620 colon)?
**A.** The TGI was 1.33 µM.

**Q.** And the GI50 (OVCAR-4 ovarian)?
**A.** Its GI50 is 1.21 µM.

**Q.** What about the TGI (OVCAR-4 ovarian) of the same molecule?
**A.** The TGI was 2.48 µM.

**Q.** And the GI50 (ACHN renal)?
**A.** The GI50 was 0.535 µM.

**Q.** And the TGI (ACHN renal)?
**A.** The TGI was 1.86 µM.

**Q.** And the GI50 (U251 glioblastoma)?
**A.** The GI50 was 1.21 µM.

**Q.** And the TGI (U251 glioblastoma)?
**A.** Its TGI is 2.48 µM.

**Q.** And the GI50 (HOP-62 NSCLC)?
**A.** The GI50 was 1.22 µM.

**Q.** And the TGI (HOP-62 NSCLC)?
**A.** The TGI was 2.49 µM.

**Q.** And the GI50 (UACC-62 melanoma)?
**A.** Its GI50 is 0.385 µM.

**Q.** What about the TGI (UACC-62 melanoma) of the same molecule?
**A.** The TGI was 1.77 µM.

**Q.** What about the GI50 (HCT-15 colon) of the same molecule?
**A.** Its GI50 is 0.265 µM.

Reference: PubChem BioAssay (NCI)
